These results are taken from patent publication US20150004637A1, “SYSTEMS AND METHODS FOR IMAGING AT HIGH SPATIAL AND/OR TEMPORAL PRECISION” (President and Fellows of Harvard College, priority 2011, published 2015).

Where two headings read alike, the source gives them in different places.

For one data set, the system named is membrane potential. The note with it: literature values, cited from earlier work; for Approx ΔF/F per 100 mV: ΔR/R where comment says ratiometric.
Data set [1] can be described thus: Schiff base pKa and fluorescence of GPR / PROPS. The class given is physicochemical.

Consider `CCCCN(CCCC)c1ccc(/C=C/C=C/C=C/c2cc[n+](CCCCS(=O)(=O)[O-])cc2)cc1` [RH237], for which, in the data set with membrane potential, the Approx response time was less than 1 ms and the “Approx ΔF/F per 100 mV” value was 11%.
In the case of `CCCCCN(CCCCC)c1ccc(/C=C/C=C/c2cc[n+](CCCCS(=O)(=O)[O-])cc2)cc1` [RH421], in the data set with membrane potential, the Approx response time was less than 1 ms and the “Approx ΔF/F per 100 mV” value is 21%.
In the case of `CCCCN(CCCC)c1ccc2cc(/C=C/c3cc[n+](CCCS(=O)(=O)[O-])cc3)ccc2c1` [di-4-ANEPPS], in the data set on membrane potential, the Approx response time is less than 1 ms and the “Approx ΔF/F per 100 mV” value is 8%.
On to `CCCCCCCCN(CCCCCCCC)c1ccc2cc(/C=C/c3cc[n+](CCCS(=O)(=O)[O-])cc3)ccc2c1` [di-8-ANEPPS], for which, in the data set with membrane potential, the Approx response time is reported as less than 1 ms and the “Approx ΔF/F per 100 mV” value is given as 10%.
With Flash, in the data set with membrane potential, the Approx response time is 2.8 to 85 ms and the “Approx ΔF/F per 100 mV” value is 5.1%.

B1: GPR: Green-absorbing proteorhodopsin, light-driven proton pump found in marine bacteria (protein)
chain: TMGKLLLILGSVIALPTFAAGGGDLDASDYTGVSFWLVTAALLASTVFFFVERDRVSAKWKTSLTVSGLVTGIAFWHYMYMRGVWIETGDSPTVFRYIDWLLTVPLLICEFYLILAAATNVAAGLFKKLLVGSLVMLVFGYMGEAGIMNAWPAFIIGCLAWVYMIYELYAGEGKSACNTASPSVQSAYNTMMAIIVFGWAIYPVGYFTGYLMGDGGSALNLNLIYNLADFVNKILFGLIIWNVAVKESSNA
modifications: /note=“Description of Unknown Green-absorbing proteorhodopsin polypeptide from an uncultured marine bacterium”
For the molecule B1, the “pKa of the Schiff Base” value is roughly 12 in data set [1] and greater than 12 in data set [1] (listed as green proteorhodopsin).
